# Experimental data reported in patent publication US12077503B2, “Substituted cyclic amides and their use as herbicides” (FMC CORPORATION, priority 2015, dated 2024).
# Key:
# Assay in all cases: Test C preemergence
# Type in all cases: in vivo
# [1] = system: nutsedge, yellow (yellow nutsedge, Cyperus esculentus); conditions: for Plant response rating, Nutsedge, Yellow: scale 0 to 100, 0 no effect, 100 complete control
# In short: (§1)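 Assessment: visual, 13–15 d after treatment, 0 (no effect) to 100 (complete control) relative to controls. Treatment: preemergence to seeds in loam-sand soil, or postemergence to 1- to 4-leaf plants in peat-based medium. Formulation: non-phytotoxic solvent mixture with surfactant.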
# [2] = system: wheat (winter wheat, Triticum aestivum); conditions: for Plant response rating, Wheat: scale 0 to 100, 0 no effect, 100 complete control
# In short: as §1
# [3] = system: barnyardgrass (Echinochloa crus-galli); conditions: for Plant response rating, Barnyardgrass: scale 0 to 100, 0 no effect, 100 complete control
# In short: as §1
# [4] = system: ryegrass, Italian (Italian ryegrass, Lolium multiflorum); conditions: for Plant response rating, Ryegrass, Italian: scale 0 to 100, 0 no effect, 100 complete control
# In short: as §1
# [5] = system: lambsquarters (Chenopodium album); conditions: for Plant response rating, Lambsquarters: scale 0 to 100, 0 no effect, 100 complete control
# In short: as §1
# [6] = system: blackgrass (Alopecurus myosuroides); conditions: for Plant response rating, Blackgrass: scale 0 to 100, 0 no effect, 100 complete control
# In short: as §1
# [7] = system: foxtail, giant (giant foxtail, Setaria faberii); conditions: for Plant response rating, Foxtail, Giant: scale 0 to 100, 0 no effect, 100 complete control
# In short: as §1
# corn (Zea mays) = conditions: for Plant response rating, Corn: scale 0 to 100, 0 no effect, 100 complete control
# In short: as §1
# [8] = system: pigweed (Amaranthus retroflexus); conditions: for Plant response rating, Pigweed: scale 0 to 100, 0 no effect, 100 complete control
# In short: as §1
# soybean (Glycine max) = system: soybean (Glycine max)
# In short: as §1
# [9] = system: morningglory (Ipomoea coccinea); conditions: for Plant response rating, Morningglory: scale 0 to 100, 0 no effect, 100 complete control
# In short: as §1
# [10] = system: johnsongrass (Sorghum halepense); conditions: for Plant response rating, Johnsongrass: scale 0 to 100, 0 no effect, 100 complete control
# In short: as §1
# [11] = system: ragweed (common ragweed, Ambrosia elatior); conditions: for Plant response rating, Ragweed: scale 0 to 100, 0 no effect, 100 complete control
# In short: as §1
# [12] = system: Galium (catchweed bedstraw, Galium aparine); conditions: for Plant response rating, Galium: scale 0 to 100, 0 no effect, 100 complete control
# In short: as §1
# [13] = system: oilseed rape (Brassica napus); conditions: for Plant response rating, Oilseed Rape: scale 0 to 100, 0 no effect, 100 complete control
# In short: as §1
# [14] = system: velvetleaf (Abutilon theophrasti); conditions: for Plant response rating, Velvetleaf: scale 0 to 100, 0 no effect, 100 complete control
# In short: as §1
# [15] = system: crabgrass, large (large crabgrass, Digitaria sanguinalis); conditions: for Plant response rating, Crabgrass, Large: scale 0 to 100, 0 no effect, 100 complete control
# In short: as §1
# [16] = system: waterhemp (common waterhemp, Amaranthus rudis); conditions: for Plant response rating, Waterhemp: scale 0 to 100, 0 no effect, 100 complete control
# In short: as §1
# [17] = 31 g ai/ha, 0 is no effect, 100 is complete control
compound,measurement,setting,value
CC(C)Oc1cccc(C2CN(C)C(=O)C2C(=O)Nc2cccc(F)c2F)c1 (stereo not shown) [Compound 651],"Plant response rating (scale of 0 to 100), Nutsedge, Yellow",[1]; [17],0
same,"Plant response rating, Nutsedge, Yellow",[1]; 62 g ai/ha,0
same,"Plant response rating, Nutsedge, Yellow",[1]; 125 g ai/ha,0
same,"Plant response rating, Nutsedge, Yellow",[1]; 250 g ai/ha,0
same,"Plant response rating (scale of 0 to 100), Wheat",[2]; [17],50
same,"Plant response rating, Wheat",[2]; 62 g ai/ha,50
same,"Plant response rating, Wheat",[2]; 125 g ai/ha,55
same,"Plant response rating, Wheat",[2]; 250 g ai/ha,75
same,"Plant response rating (scale of 0 to 100), Barnyardgrass",[3]; [17],95
same,"Plant response rating, Barnyardgrass",[3]; 62 g ai/ha,98
same,"Plant response rating, Barnyardgrass",[3]; 125 g ai/ha,100
same,"Plant response rating, Barnyardgrass",[3]; 250 g ai/ha,100
same,"Plant response rating (scale of 0 to 100), Ryegrass, Italian",[4]; [17],15
same,"Plant response rating, Ryegrass, Italian",[4]; 62 g ai/ha,40
same,"Plant response rating, Ryegrass, Italian",[4]; 125 g ai/ha,75
same,"Plant response rating, Ryegrass, Italian",[4]; 250 g ai/ha,85
same,"Plant response rating (scale of 0 to 100), Lambsquarters",[5]; [17],35
same,"Plant response rating, Lambsquarters",[5]; 62 g ai/ha,55
same,"Plant response rating, Lambsquarters",[5]; 125 g ai/ha,85
same,"Plant response rating, Lambsquarters",[5]; 250 g ai/ha,100
same,"Plant response rating (scale of 0 to 100), Blackgrass",[6]; [17],40
same,"Plant response rating, Blackgrass",[6]; 62 g ai/ha,45
same,"Plant response rating, Blackgrass",[6]; 125 g ai/ha,60
same,"Plant response rating, Blackgrass",[6]; 250 g ai/ha,85
same,"Plant response rating (scale of 0 to 100), Foxtail, Giant",[7]; [17],95
same,"Plant response rating, Foxtail, Giant",[7]; 62 g ai/ha,98
same,"Plant response rating, Foxtail, Giant",[7]; 125 g ai/ha,98
same,"Plant response rating, Foxtail, Giant",[7]; 250 g ai/ha,100
same,"Plant response rating (scale of 0 to 100), Corn",corn (Zea mays); [17],25
same,"Plant response rating, Corn",corn (Zea mays); 62 g ai/ha,55
same,"Plant response rating, Corn",corn (Zea mays); 125 g ai/ha,70
same,"Plant response rating, Corn",corn (Zea mays); 250 g ai/ha,70
same,"Plant response rating (scale of 0 to 100), Pigweed",[8]; [17],35
same,"Plant response rating, Pigweed",[8]; 62 g ai/ha,40
same,"Plant response rating, Pigweed",[8]; 125 g ai/ha,50
same,"Plant response rating, Pigweed",[8]; 250 g ai/ha,85
same,"Plant response rating (scale of 0 to 100), Soybean",soybean (Glycine max); [17],5
same,"Plant response rating, Soybean","soybean (Glycine max); 125 g ai/ha, scale 0 to 100, 0 no effect, 100 complete control",0
same,"Plant response rating (scale of 0 to 100), Morningglory",[9]; [17],0
same,"Plant response rating, Morningglory",[9]; 62 g ai/ha,0
same,"Plant response rating, Morningglory",[9]; 125 g ai/ha,0
same,"Plant response rating, Morningglory",[9]; 250 g ai/ha,0
same,"Plant response rating (scale of 0 to 100), Johnsongrass",[10]; [17],20
same,"Plant response rating, Johnsongrass",[10]; 62 g ai/ha,50
same,"Plant response rating, Johnsongrass",[10]; 125 g ai/ha,70
same,"Plant response rating, Johnsongrass",[10]; 250 g ai/ha,80
same,"Plant response rating (scale of 0 to 100), Ragweed",[11]; [17],20
same,"Plant response rating, Ragweed",[11]; 62 g ai/ha,25
same,"Plant response rating, Ragweed",[11]; 125 g ai/ha,60
same,"Plant response rating, Ragweed",[11]; 250 g ai/ha,85
same,"Plant response rating (scale of 0 to 100), Galium",[12]; [17],60
same,"Plant response rating, Galium",[12]; 62 g ai/ha,50
same,"Plant response rating, Galium",[12]; 125 g ai/ha,90
same,"Plant response rating, Galium",[12]; 250 g ai/ha,90
same,"Plant response rating (scale of 0 to 100), Oilseed Rape",[13]; [17],75
same,"Plant response rating, Oilseed Rape",[13]; 62 g ai/ha,80
same,"Plant response rating, Oilseed Rape",[13]; 125 g ai/ha,90
same,"Plant response rating, Oilseed Rape",[13]; 250 g ai/ha,90
same,"Plant response rating (scale of 0 to 100), Velvetleaf",[14]; [17],25
same,"Plant response rating, Velvetleaf",[14]; 62 g ai/ha,45
same,"Plant response rating, Velvetleaf",[14]; 125 g ai/ha,70
same,"Plant response rating, Velvetleaf",[14]; 250 g ai/ha,70
same,"Plant response rating (scale of 0 to 100), Crabgrass, Large",[15]; [17],98
same,"Plant response rating, Crabgrass, Large",[15]; 62 g ai/ha,100
same,"Plant response rating, Crabgrass, Large",[15]; 125 g ai/ha,100
same,"Plant response rating, Crabgrass, Large",[15]; 250 g ai/ha,100
same,"Plant response rating (scale of 0 to 100), Waterhemp",[16]; [17],20
same,"Plant response rating, Waterhemp",[16]; 62 g ai/ha,40
same,"Plant response rating, Waterhemp",[16]; 125 g ai/ha,50
same,"Plant response rating, Waterhemp",[16]; 250 g ai/ha,85
